Values quoted from earlier work as cited in US9526741B2, “Chemosensory receptor ligand-based therapies” (NaZura BioHealth, Inc., priority 2009, dated 2016).

Tested on: GLP-1
Settings: humans

OCCN1C[C@H](O)[C@@H](O)[C@H](O)[C@H]1CO [miglitol]
postprandial GLP-1 levels: increase
